Values after ≈ are worked out from the molar mass of the structure shown. Read-outs that look alike come from different tables or passages of the source.
Columns and labels:
Type in all cases: cell-based
[1] = system: B. thetaiotaomicron ATCC 29741; experiment: Antibacterial MIC, CLSI broth microdilution; conditions: Bacteroides thetaiotaomicron
Method: (§1) Grain (−) and gram (+) antibacterial minimum inhibitory concentration (MIC) values (μg/mL) were obtained using CLSI methodology for anti-bacterial susceptibility testing. On each day of testing, serial dilutions of compounds were prepared in microdilution plates using a Tecan robotic workstation. Mueller Hinton broth cultures of representative sensitive and resistant gram negative strains were grown or adjusted to match the turbidity of a 0.5 McFarland standard. 1:200 dilutions were made in an appropriate broth (cation supplemented Mueller Hinton broth) to allow a final inoculum of 1×10^5 cfu. Plates were incubated at 35° C. in ambient air for 18-24 hours, were read spectrophotometrically and checked manually for evidence of bacterial growth. The lowest dilution of compound that inhibited growth was recorded as the MIC. Lysed horse blood was used to supplement broth for testing S. pneumoniae. The MIC's for each compound were assessed against S. aureus, S. pneumoniae, P. acnes, E. coli and B. theta.

E. coli ATCC 25922 = experiment: Antibacterial MIC, CLSI broth microdilution; conditions: Escherichia coli, ATCC25922; 35° C., 18-24 hours
Method: as §1

E. coli MG 1655 = experiment: Antibacterial MIC, CLSI broth microdilution; conditions: Escherichia coli, MG1655; 35° C., 18-24 hours
Method: as §1

P. acnes ATCC 11827 = experiment: Antibacterial MIC, CLSI broth microdilution; conditions: Cutibacterium acnes, ATCC11827; 35° C., 18-24 hours
Method: as §1

P. acnes ATCC 6919 = experiment: Antibacterial MIC, CLSI broth microdilution; conditions: Cutibacterium acnes, ATCC6919; 35° C., 18-24 hours
Method: as §1

S. aureus RN450 = experiment: Antibacterial MIC, CLSI broth microdilution; conditions: Staphylococcus aureus, RN450; 35° C., 18-24 hours
Method: as §1

[2] = system: S. pneumoniae 157E - Strep; experiment: Antibacterial MIC, CLSI broth microdilution; conditions: Streptococcus pneumoniae, 157ESTREP; 35° C., 18-24 hours; lysed horse blood
Method: as §1

in vitro = experiment: in vitro
Method: Mammalian cell cytotoxicity was assessed to evaluate potential in vivo risks associated with the tetracycline compounds of the invention. A soluble, non-toxic redox dye (“Resazurin”; Alamar Blue) was used to assess a tetracycline compound's effect on cellular metabolism. At the onset of the experiment, cultures of mammalian COS-1 or CHO cells were washed, trypsinized, and harvested. […] On the next day, serial dilutions of test drug were prepared under sterile conditions and transferred to cell plates. Plates were then incubated under the above conditions for 24 hours. Following the incubation period, the media/drug was aspirated, and 50 μL of resazurin was added. Plates were then incubated under the above conditions for 2 hours and then in the dark at room temperature for an additional 30 minutes. Fluorescence measurements were taken (excitation 535 nm, emission 590 nm) and toxic effects in treated versus control cells were compared based on the degree of fluorescence in each well.

[3] = ATCC29741, 35° C., 18-24 hours, read-out: MIC B. thetaiotaomicron ATCC 29741

| SMILES | MIC [1, 3] [µg/mL] | MIC (E. coli ATCC 25922) [µg/mL] | MIC (E. coli MG 1655) [µg/mL] | MIC (P. acnes ATCC 11827) [µg/mL] | MIC (P. acnes ATCC 6919) [µg/mL] | MIC (S. aureus RN450) [µg/mL] | MIC [2] [µg/mL] | IC50 at 24 h (in vitro; African green monkey) [µg/mL] | IC50 at 24 h (in vitro; Chinese hamster) [µg/mL] | MIC ([1]; ATCC29741, read-out: MIC B. thetaiotaomicron ATCC 29741) [µg/mL] |
| --- | --- | --- | --- | --- | --- | --- | --- | --- | --- | --- |
| C=CCN(Cc1ccc(O)c2c1C[C@H]1C[C@H]3[C@H](N(C)C)C(O)=C(C(N)=O)C(=O)[C@@]3(O)C(O)=C1C2=O)C(=O)OC [F] | 4 to 8 (≈ 7.39 to 14.8 µM) | > 8 | > 8 | < 4 | < 4 | < 4 | < 4 | < 35 | < 35 |  |
| CON(C)Cc1ccc2c(c1O)C(=O)C1=C(O)[C@]3(O)C(=O)C(C(N)=O)=C(O)[C@@H](N(C)C)[C@@H]3C[C@@H]1C2 [GL] |  | > 8 | > 8 | 4 to 8 (≈ 8.2 to 16.4 µM) | 4 to 8 (≈ 8.2 to 16.4 µM) | 4 to 8 (≈ 8.2 to 16.4 µM) | 4 to 8 (≈ 8.2 to 16.4 µM) | 35 to 75 (≈ 71.8 to 154 µM) | 35 to 75 (≈ 71.8 to 154 µM) | 4 to 8 (≈ 8.2 to 16.4 µM) |
| CCONCc1ccc2c(c1O)C(=O)C1=C(O)[C@]3(O)C(=O)C(C(N)=O)=C(O)[C@@H](N(C)C)[C@@H]3C[C@@H]1C2 [GM] | 4 to 8 (≈ 8.2 to 16.4 µM) | > 8 | > 8 | 4 to 8 (≈ 8.2 to 16.4 µM) | < 4 | < 4 | < 4 | < 35 | < 35 |  |
| CC1CCN(Cc2cccc3c2C[C@H]2C[C@H]4[C@@H](N(C)C)C(O)=C(C(N)=O)C(=O)[C@@]4(O)C(O)=C2C3=O)CC1 [G] | > 8 | 4 to 8 (≈ 7.85 to 15.7 µM) | > 8 | 4 to 8 (≈ 7.85 to 15.7 µM) | 4 to 8 (≈ 7.85 to 15.7 µM) | < 4 | < 4 | > 75 | > 75 |  |
| CN(C)[C@H]1C(O)=C(C(N)=O)C(=O)[C@@]2(O)C(O)=C3C(=O)c4cccc(-c5ncccn5)c4C[C@H]3C[C@@H]12 [H] | > 8 | > 8 | > 8 | 4 to 8 (≈ 8.39 to 16.8 µM) | 4 to 8 (≈ 8.39 to 16.8 µM) | < 4 | < 4 | > 75 | > 75 |  |
| CN(C)[C@@H]1C(O)=C(C(N)=O)C(=O)[C@@]2(O)C(O)=C3C(=O)c4c(O)ccc(-c5ncco5)c4C[C@H]3C[C@@H]12 [J] | < 4 | < 4 | < 4 | < 4 | < 4 | < 4 | < 4 | < 35 | < 35 |  |
| CN(C)[C@@H]1C(O)=C(C(N)=O)C(=O)[C@@]2(O)C(O)=C3C(=O)c4c(O)ccc(-c5cnoc5)c4C[C@H]3C[C@@H]12 [K] | < 4 | < 4 | < 4 | < 4 | < 4 | < 4 | < 4 | < 35 | < 35 |  |
| CN(C)[C@@H]1C(O)=C(C(N)=O)C(=O)[C@@]2(O)C(O)=C3C(=O)c4c(O)ccc(-c5nccs5)c4C[C@H]3C[C@@H]12 [L] | < 4 | < 4 | < 4 | < 4 | < 4 | < 4 | < 4 | < 35 | < 35 |  |
| CCO/N=C(\C)c1cc(N)c(O)c2c1C[C@H]1C[C@H]3[C@H](N(C)C)C(O)=C(C(N)=O)C(=O)[C@@]3(O)C(O)=C1C2=O [M] | 4 to 8 (≈ 7.77 to 15.5 µM) | < 4 | 4 to 8 (≈ 7.77 to 15.5 µM) | < 4 | < 4 | < 4 | < 4 | > 75 | > 75 |  |
| CCO/N=C(\C)c1cc(CNCC(C)(C)C)c(O)c2c1C[C@H]1C[C@H]3[C@H](N(C)C)C(O)=C(C(N)=O)C(=O)[C@@]3(O)C(O)=C1C2=O [N] | < 4 | < 4 | 4 to 8 (≈ 6.68 to 13.4 µM) | < 4 | < 4 | < 4 | < 4 | > 75 | > 75 |  |
| CN(C)CC/C(=N\OC(C)(C)C)c1ccc(O)c2c1C[C@H]1C[C@H]3[C@H](N(C)C)C(O)=C(C(N)=O)C(=O)[C@@]3(O)C(O)=C1C2=O [O] | < 4 | < 4 | < 4 | < 4 | < 4 | < 4 | < 4 | 35 to 75 (≈ 59.9 to 128 µM) | < 35 |  |
| C/C(=N\OC(C)(C)C)c1cc(N)c(O)c2c1C[C@H]1C[C@H]3[C@@H](N(C)C)C(O)=C(C(N)=O)C(=O)[C@@]3(O)C(O)=C1C2=O [R] | 4 to 8 (≈ 7.37 to 14.7 µM) | > 8 | > 8 | < 4 | < 4 | < 4 | < 4 | < 35 | < 35 |  |
| CN(C)[C@@H]1C(O)=C(C(N)=O)C(=O)[C@@]2(O)C(O)=C3C(=O)c4cccc(-c5ncccn5)c4C[C@H]3C[C@@H]12 [S] | > 8 | > 8 | > 8 | 4 to 8 (≈ 8.39 to 16.8 µM) | 4 to 8 (≈ 8.39 to 16.8 µM) | < 4 | < 4 | > 75 | > 75 |  |
| CN(C)[C@@H]1C(O)=C(C(N)=O)C(=O)[C@@]2(O)C(O)=C3C(=O)c4c(O)ccc(-c5ccc[nH]5)c4C[C@H]3C[C@@H]12 [T, (4S,4aS,5aR,12aS)-4-Dimethylamino-3,10,12,12a-tetrahydroxy-1,11-dioxo-7-(1H-pyrrol-2-yl)-1,4,4a,5,5a,6,11,12a-octahydro-naphthacene-2-carboxylic acid amide] | 4 to 8 (≈ 8.34 to 16.7 µM) | < 4 | < 4 | < 4 | < 4 | < 4 | < 4 | < 35 | < 35 |  |
| CN(C)[C@@H]1C(O)=C(C(N)=O)C(=O)[C@@]2(O)C(O)=C3C(=O)c4c(O)ccc(CN5CCCO5)c4C[C@H]3C[C@@H]12 [U] | 4 to 8 (≈ 8.01 to 16 µM) | < 4 | 4 to 8 (≈ 8.01 to 16 µM) | < 4 | < 4 | < 4 | < 4 | > 75 | 35 to 75 (≈ 70.1 to 150 µM) |  |
| CN(C)[C@@H]1C(O)=C(C(N)=O)C(=O)[C@@]2(O)C(O)=C3C(=O)c4c(O)ccc(/C=N/NC(C)(C)C)c4C[C@H]3C[C@@H]12 [X] | < 4 | < 4 | < 4 | < 4 | < 4 | < 4 | < 4 | < 35 | < 35 |  |
